Laboratory results from patent US9409952B2, “Peptide-compound cyclization method” (Chugai Seiyaku Kabushiki Kaisha, priority 2011, dated 2016).
Starred links: 1 amine or outer side, 2 acyl side, 3 side chain; linkers in the order of their positions; H or OH if unused. Positions of bridges follow the written chain, without caps; N, C: chain ends. Non-standard residues stand in square brackets, D forms with d. Residues, ends and D or L forms follow the SMILES beside them. *: point of attachment. Phe(4-(CH2)5CO) = O=C([C@H](Cc1ccc(CCCCCC(=O)[*:3])cc1)N[*:1])[*:2]; NMePhe(3-Cl) = CN[C@@H](Cc1cccc(Cl)c1)C(=O)O; NMeF = CN[C@@H](Cc1ccccc1)C(=O)O; NMeGABA = CN(CCCC(=O)[*:2])[*:1]; NMeI = CC[C@H](C)[C@H](NC)C(=O)O; NMeL = CN[C@@H](CC(C)C)C(=O)O; NMeV = CN[C@H](C(=O)O)C(C)C; NMeA = CN[C@@H](C)C(=O)O; Piperidide = C1CCN(*)CC1; dNMeA = CN[C@H](C)C(=O)O; β3hA = C[C@H](N)CC(=O)O; Aib = CC(C)(N)C(=O)O; NPrGly = CCCNCC(=O)O; Sar = CNCC(=O)O; tBu = CC(C)(C)*

Experiments:
[1] = PAMPA (parallel artificial membrane permeability assay); assay type: in vitro ADME; settings: PAMPA; membrane permeation rate (Pe); 50 mM MOPSO buffer pH 6.5 with 5.0% glycocholic acid, 37° C., 18 hours; read-out: iPAMPA Pe
Method in brief: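 Artificial membrane was 10% (w/v) egg lecithin plus 0.5% (w/v) cholesterol in dodecane on a PVDF filter. A 10 mM DMSO stock was added at 0.5% (v/v) to donor buffer (50 mM MOPSO, pH 6.5, 5.0% glycocholic acid). After 18 h at 37 °C, LC/MS or LC/UV gave donor and acceptor levels for Pe.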

[2] = Metabolic stability in human hepatic microsome; assay type: in vitro ADME; settings: microsomes, pH 7.4; human hepatic microsome, NADPH(+); read-out: CL NADPH(+)
[3] = Mouse PK test of peptides (intravenous and oral administration); settings: male, C57BL/6J, in vivo, 20 mg/kg

SMILES | Papp at 18 hours, 50 µM [1] [×10⁻⁶ cm/s] | microsomal CLint at 1 uM [2] [µL/min/mg] | AUC ([3]; iv) [ng·h/mL] | C0 ([3]; iv) [ng/mL] | Vd ([3]; iv) [L/kg] | clearance ([3]; iv) [mL/min/kg] | half-life ([3]; iv) [h] | AUC ([3]; po) [ng·h/mL] | CL/F ([3]; po) [mL/min/kg] | Cmax ([3]; po) [ng/mL] | Tmax ([3]; po) [h] | bioavailability ([3]; po) [%] | half-life ([3]; po) [h]
CC[C@H](C)[C@H]1C(=O)N[C@H](C(=O)N2CCCCC2)CC(=O)N[C@H](C(C)C)C(=O)N(C)[C@@H](Cc2ccccc2)C(=O)N(C)[C@@H](CC(C)C)C(=O)N[C@@H]([C@@H](C)O)C(=O)N(C)CC(=O)N(C)[C@@H](CC(C)C)C(=O)N[C@@H](COC(C)(C)C)C(=O)N1C [DP-265] ([dV][NMeF][NMeL]T[Sar][NMeL]S(tBu)[NMeI]D-Piperidide; lactam N-9) | 42 | 58 | 35300 | 58300 | 0.713 | 9.48 | 1.82 | 5120 | 65.1 | 2850 | 0.67 | 14.5 | 1.96
CC[C@H](C)[C@H](NC(=O)[C@@H]1CCCN1C(=O)[C@@H]1CC(=O)N[C@@H](C)C(=O)N[C@@H](CC(C)C)C(=O)N(C)[C@@H]([C@@H](C)CC)C(=O)N[C@@H](C(C)C)C(=O)N(C)[C@@H](Cc2ccccc2)C(=O)N[C@@H](CC(C)C)C(=O)N(C)[C@@H](Cc2ccccc2)C(=O)N1)C(=O)N1CCCCC1 [DP-965] (AL[NMeI]V[NMeF]L[NMeF]DPI-Piperidide; lactam N-8) | 16 | 56 | 193000 | 171000 | 0.403 | 1.73 | 2.99 | 13700 | 28.9 | 1920 | 2.67 | 7.12 | 2.99
CC(C)C[C@@H]1NC(=O)[C@H](Cc2ccccc2)N(C)C(=O)[C@H](Cc2ccccc2)N(C)C(=O)[C@H](CC(C)C)NC(=O)[C@H](C)N(C)C(=O)[C@H]([C@@H](C)O)NC(=O)[C@H](C)N(C)C(=O)C[C@@H](C(=O)N2CCCCC2)NC(=O)[C@H](CC(C)C)N(C)C1=O [DP-125] ([NMeA]T[NMeA]L[NMeF][NMeF]L[NMeL]D-Piperidide; lactam N-9) | 55 | 189 | 35400 | 46400 | 0.545 | 9.49 | 1.44 | 12100 | 27.5 | 3090 | 3.5 | 34.6 | –
CCCN1CC(=O)N(C)[C@@H](CC(C)C)C(=O)N[C@@H]([C@@H](C)O)C(=O)N(C)[C@@H](C)C(=O)N(C)[C@@H](CC(C)C)C(=O)N(C)[C@@H]([C@@H](C)CC)C(=O)N[C@@H](COC(C)(C)C)C(=O)N[C@H](C(=O)N2CCCCC2)CC(=O)N(C)[C@@H](C)C(=O)N(C)[C@@H](Cc2ccccc2)C1=O [DP-540] ([NMeA][NMeF][NPrGly][NMeL]T[NMeA][NMeL][NMeI]S(tBu)D-Piperidide; lactam N-10) | 36 | 67 | 41400 | 48100 | 0.803 | 8.16 | 1.63 | 9800 | 35.8 | 1870 | 1.83 | 23.7 | 3.11
CCCN1CC(=O)N(C)[C@@H](CC(C)C)C(=O)N[C@@H](COC(C)(C)C)C(=O)N(C)[C@@H](CC(C)C)C(=O)N[C@H](C(=O)N2CCCCC2)CC(=O)N[C@H](C)C(=O)N(C)[C@@H](C)C(=O)N(C)[C@@H](Cc2ccccc2)C(=O)N(C)[C@@H](CC(C)C)C(=O)N[C@@H]([C@@H](C)O)C1=O [DP-547] ([dA][NMeA][NMeF][NMeL]T[NPrGly][NMeL]S(tBu)[NMeL]D-Piperidide; lactam N-10) | 34 | 33 | 37200 | 44500 | 0.541 | 8.98 | 1.1 | 4510 | 74.6 | 1470 | 1 | 12.1 | 1.84
CC[C@H](C)[C@H]1C(=O)N[C@H](C(=O)N2CCCCC2)Cc2ccc(cc2)CCCCCC(=O)N[C@@H](CC(C)C)C(=O)N2CCC[C@H]2C(=O)N(C)[C@@H](C(C)C)C(=O)N[C@@H](Cc2ccccc2)C(=O)N(C)[C@@H](Cc2ccccc2)C(=O)N(C)[C@@H](CC(C)C)C(=O)N[C@@H](C)C(=O)N1C [DP-871] (LP[NMeV]F[NMeF][NMeL]A[NMeI][Phe(4-(CH2)5CO)]-Piperidide; lactam N-9) | 1.2 | 389 | – | – | – | – | – | – | – | – | – | – | –
CC(C)C[C@H]1C(=O)N[C@@H](Cc2ccccc2)C(=O)N(C)[C@@H](C)C(=O)N(C)[C@@H](C)C(=O)N[C@@H]([C@@H](C)O)C(=O)N(C)CC(=O)N(C)[C@@H](Cc2ccccc2)C(=O)N[C@H](C(=O)N(C)[C@@H](Cc2ccccc2)C(=O)N[C@@H](C)C(=O)N2CCCCC2)CC(=O)N(C)[C@H](C)C(=O)N(C)[C@@H](C)C(=O)N[C@@H](C)C(=O)N1C [DP-363] ([dNMeA][NMeA]A[NMeL]F[NMeA][NMeA]T[Sar][NMeF]D[NMeF]A-Piperidide; lactam N-11) | 5 | 15 | – | – | – | – | – | – | – | – | – | – | –
CC[C@H](C)[C@@H]1NC(=O)[C@H](C)N(C)C(=O)[C@H](CC(C)C)N(C)C(=O)CCCN(C)C(=O)C[C@@H](C(=O)N2CCCCC2)NC(=O)[C@H](C)N(C)C(=O)[C@H](Cc2ccccc2)N(C)C(=O)[C@H]([C@@H](C)O)NC(=O)[C@H](Cc2ccccc2)N(C)C(=O)[C@H](CC(C)C)N(C)C1=O [DP-487] ([NMeGABA][NMeL][NMeA]I[NMeL][NMeF]T[NMeF][NMeA]D-Piperidide; lactam N-10) | 24 | 386 | – | – | – | – | – | – | – | – | – | – | –
CC[C@H](C)[C@H](NC(=O)[C@H](Cc1ccccc1)N(C)C(=O)[C@H](C)N(C)C(=O)[C@@H](NC(=O)[C@@H]1CC(=O)N[C@@H](C)C(=O)N[C@@H]([C@@H](C)O)C(=O)N(C)[C@@H](CC(C)C)C(=O)N[C@@H](C(C)C)C(=O)N(C)[C@@H](Cc2cccc(Cl)c2)C(=O)N(C)[C@@H](CC(C)C)C(=O)N[C@@H](Cc2ccccc2)C(=O)N1)[C@@H](C)CC)C(=O)N1CCCCC1 [DP-928] (AT[NMeL]V[NMePhe(3-Cl)][NMeL]FDI[NMeA][NMeF]I-Piperidide; lactam N-8) | 0.1 | 60 | – | – | – | – | – | – | – | – | – | – | –
CC[C@H](C)[C@H]1C(=O)N(C)[C@@H](CC(C)C)C(=O)N[C@@H](Cc2ccccc2)C(=O)N[C@@H]([C@@H](C)O)C(=O)N[C@@H](CC(C)C)C(=O)N(C)[C@@H](Cc2ccccc2)C(=O)N(C)[C@@H](C(C)C)C(=O)N[C@H](C(=O)N2CCC[C@H]2C(=O)N[C@H](C(=O)N[C@@H](C)C(=O)N2CCCCC2)C(C)C)CC(=O)N[C@H](C)C(=O)N[C@@H](C)C(=O)N1C [DP-671] ([dA]A[NMeI][NMeL]FTL[NMeF][NMeV]DPVA-Piperidide; lactam N-10) | 16 | 39 | – | – | – | – | – | – | – | – | – | – | –
CC(C)C[C@H]1C(=O)N(C)[C@@H](C)C(=O)N(C)[C@@H](CC(C)C)C(=O)N[C@@H]([C@@H](C)O)C(=O)N(C)[C@@H](C)C(=O)N(C)[C@@H](CC(C)C)C(=O)N[C@@H](COC(C)(C)C)C(=O)N[C@@H](C)CC(=O)N[C@H](C(C)C)C(=O)N1C [DP-802] (cyclo([NMeA][NMeL]S(tBu)[β3hA][dV][NMeL][NMeA][NMeL]T)) | 29 | 77 | – | – | – | – | – | – | – | – | – | – | –
CC[C@H](C)[C@H](NC(=O)[C@H](CC(C)C)NC(=O)[C@@H]1CCCN1C(=O)[C@H](CC(C)C)NC(=O)[C@H](CC(C)C)N(C)C(=O)[C@@H]1CC(=O)N[C@@H](Cc2ccccc2)C(=O)N[C@@H](CC(C)C)C(=O)N(C)[C@@H](CC(C)C)C(=O)N[C@@H]([C@@H](C)O)C(=O)N(C)[C@@H](Cc2cccc(Cl)c2)C(=O)N(C)[C@@H](C)C(=O)N(C)[C@@H](CC(C)C)C(=O)N1)C(=O)N1CCCCC1 [DP-925] (FL[NMeL]T[NMePhe(3-Cl)][NMeA][NMeL]D[NMeL]LPLI-Piperidide; lactam N-8) | 0.1 | 2 | – | – | – | – | – | – | – | – | – | – | –
CC[C@H](C)[C@H]1C(=O)NCC(=O)N(C)[C@@H](CC(C)C)C(=O)N[C@@H]([C@@H](C)O)C(=O)N2CCC[C@H]2C(=O)NC(C)(C)C(=O)N[C@H](C(=O)N2CCCCC2)CC(=O)N(C)[C@@H](C)C(=O)N[C@@H](Cc2ccccc2)C(=O)N(C)[C@@H](CC(C)C)C(=O)N[C@@H](CC(C)C)C(=O)N1C [DP-564] ([NMeA]F[NMeL]L[NMeI]G[NMeL]TP[Aib]D-Piperidide; lactam N-11) | 27 | 80 | – | – | – | – | – | – | – | – | – | – | –
CC(C)C[C@H]1C(=O)N(C)[C@@H](C)C(=O)N[C@@H]([C@@H](C)O)C(=O)N(C)[C@@H](C)C(=O)N[C@H](C(=O)N(C)[C@@H](Cc2ccccc2)C(=O)N[C@@H](C)C(=O)N2CCCCC2)CC(=O)N(C)[C@H](C)C(=O)N(C)[C@@H](Cc2ccccc2)C(=O)N(C)[C@@H](C)C(=O)N[C@@H](C(C)C)C(=O)N1C [DP-462] ([dNMeA][NMeF][NMeA]V[NMeL][NMeA]T[NMeA]D[NMeF]A-Piperidide; lactam N-9) | 9.5 | 17 | – | – | – | – | – | – | – | – | – | – | –
CC(C)C[C@H]1C(=O)N(C)[C@@H](C)C(=O)N[C@H](C(=O)N(C)[C@@H](Cc2ccccc2)C(=O)N[C@@H](C)C(=O)N2CCCCC2)CC(=O)N(C)[C@@H](C)C(=O)N(C)[C@@H](C)C(=O)N(C)[C@@H](Cc2ccccc2)C(=O)N[C@@H]([C@@H](C)O)C(=O)N(C)[C@@H](C)C(=O)N(C)[C@@H](Cc2ccccc2)C(=O)N[C@@H](C)C(=O)N1C [DP-377] ([NMeA][NMeA][NMeF]T[NMeA][NMeF]A[NMeL][NMeA]D[NMeF]A-Piperidide; lactam N-10) | 23 | 70 | – | – | – | – | – | – | – | – | – | – | –
